“And” between values parts separate entries of the source, which are not always exact repeats. Equal entries are not always repeated.
Target: HsProRS (Homo sapiens, UniProt P07814)
Experiment: TR-FRET ligand displacement assay with tracer MAT379 (CoraFluor-1-Halo and anti-His6 antibody formats)
Assay type: binding
Parameters: made in house; host or cells: E. coli SoluBL-21
Conditions: for normalized TR-FRET ligand displacement signal, dose-response replicates (SI Fig 6) / TR-FRET dose-response, normalized signal (SI Fig 11) / normalized TR-FRET signal (dose-response replicates): listed as NCP26 (3); for TR-FRET dose-response, normalized signal (SI Fig 11): individual replicates; for normalized TR-FRET signal (dose-response replicates): SI Fig 15

Chain of HsProRS (P07814 996-1512): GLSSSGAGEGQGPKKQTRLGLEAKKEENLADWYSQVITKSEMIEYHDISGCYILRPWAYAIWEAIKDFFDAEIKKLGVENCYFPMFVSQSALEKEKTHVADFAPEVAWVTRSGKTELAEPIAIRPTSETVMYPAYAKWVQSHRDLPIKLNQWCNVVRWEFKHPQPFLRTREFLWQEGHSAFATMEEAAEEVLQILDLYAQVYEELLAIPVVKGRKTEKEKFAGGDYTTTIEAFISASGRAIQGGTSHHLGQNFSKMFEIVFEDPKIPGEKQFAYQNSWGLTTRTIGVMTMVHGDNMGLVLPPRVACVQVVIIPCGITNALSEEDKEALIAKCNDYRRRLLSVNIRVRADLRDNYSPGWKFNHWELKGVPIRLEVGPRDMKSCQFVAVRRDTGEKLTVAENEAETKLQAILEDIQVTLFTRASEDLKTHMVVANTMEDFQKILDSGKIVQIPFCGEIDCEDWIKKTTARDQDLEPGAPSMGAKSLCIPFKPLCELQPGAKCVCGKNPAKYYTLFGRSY

How did the “normalized TR-FRET ligand displacement signal, dose-response replicates (SI Fig 6)” value (Log[inhibitor] (M) -5.601) turn out when `O=C(NC1Cc2ccccc2C1)c1nccnc1NC(=O)N1CCCCC1` [NCP26] was run?
The value was 1.19E-01 and 1.01E-01.

What about the “normalized TR-FRET ligand displacement signal, dose-response replicates (SI Fig 6)” value (Log[inhibitor] (M) -5.902) of the same molecule?
The value was 2.03E-01 and 2.10E-01.

What about the “TR-FRET dose-response, normalized signal (SI Fig 11)” value (Log[inhibitor] (M) -5.904) of the same molecule?
Its value is 2.33E-01 and 2.21E-01 and 2.09E-01.

And the “normalized TR-FRET ligand displacement signal, dose-response replicates (SI Fig 6)” value (Log[inhibitor] (M) -6.203)?
The value was 4.13E-01 and 3.59E-01.

What about the “TR-FRET dose-response, normalized signal (SI Fig 11)” value (Log[inhibitor] (M) -6.208) of the same molecule?
The value was 3.61E-01 and 2.97E-01 and 3.35E-01.

What about the “TR-FRET dose-response, normalized signal (SI Fig 11)” value (Log[inhibitor] (M) -6.509) of the same molecule?
The value was 4.65E-01 and 4.29E-01 and 4.89E-01.

And the “normalized TR-FRET ligand displacement signal, dose-response replicates (SI Fig 6)” value (Log[inhibitor] (M) -6.513)?
The value was 6.17E-01 and 6.51E-01.

What about the “TR-FRET dose-response, normalized signal (SI Fig 11)” value (Log[inhibitor] (M) -6.796) of the same molecule?
The value was 6.56E-01 and 6.91E-01 and 6.47E-01.

What about the “normalized TR-FRET ligand displacement signal, dose-response replicates (SI Fig 6)” value (Log[inhibitor] (M) -6.796) of the same molecule?
The value was 7.87E-01 and 8.56E-01.

And the “TR-FRET dose-response, normalized signal (SI Fig 11)” value (Log[inhibitor] (M) -7.108)?
Its value is 8.29E-01 and 7.76E-01 and 7.86E-01.

What about the “normalized TR-FRET ligand displacement signal, dose-response replicates (SI Fig 6)” value (Log[inhibitor] (M) -7.108) of the same molecule?
The value was 8.95E-01 and 9.07E-01.

What about the “normalized TR-FRET ligand displacement signal, dose-response replicates (SI Fig 6)” value (Log[inhibitor] (M) -7.405) of the same molecule?
Its value is 9.57E-01 and 8.55E-01.

And the “TR-FRET dose-response, normalized signal (SI Fig 11)” value (Log[inhibitor] (M) -7.409)?
The value was 9.33E-01 and 8.84E-01 and 8.96E-01.

What about the “TR-FRET dose-response, normalized signal (SI Fig 11)” value (Log[inhibitor] (M) -7.710) of the same molecule?
Its value is 1.01E+00 and 8.77E-01 and 8.78E-01.

And the “normalized TR-FRET ligand displacement signal, dose-response replicates (SI Fig 6)” value (Log[inhibitor] (M) -7.714)?
The value was 1.05E+00 and 9.22E-01.

And the “TR-FRET dose-response, normalized signal (SI Fig 11)” value (Log[inhibitor] (M) -8.000)?
The value was 9.74E-01 and 9.83E-01 and 9.34E-01.

What about the “normalized TR-FRET ligand displacement signal, dose-response replicates (SI Fig 6)” value (Log[inhibitor] (M) -8.000) of the same molecule?
The value was 1.02E+00 and 1.00E+00.

What about the “normalized TR-FRET signal (Fig 2j)” value (Log[inhibitor] (M) -8.013) of the same molecule?
The value was 3.80E-01 and 4.41E-01 and 3.90E-01.

And the “TR-FRET dose-response, normalized signal (SI Fig 11)” value (Log[inhibitor] (M) -8.301)?
The value was 1.04E+00 and 9.70E-01 and 9.69E-01.

What about the “normalized TR-FRET signal (Fig 2j)” value (Log[inhibitor] (M) -8.314) of the same molecule?
Its value is 5.85E-01 and 7.34E-01 and 6.18E-01.

What about the “normalized TR-FRET ligand displacement signal, dose-response replicates (SI Fig 6)” value (Log[inhibitor] (M) -8.331) of the same molecule?
The value was 1.04E+00 and 1.00E+00.

What about the “normalized TR-FRET ligand displacement signal, dose-response replicates (SI Fig 6)” value (Log[inhibitor] (M) -8.574) of the same molecule?
The value was 1.00E+00 and 9.98E-01.

What about the “TR-FRET dose-response, normalized signal (SI Fig 11)” value (Log[inhibitor] (M) -8.602) of the same molecule?
The value was 1.02E+00 and 9.93E-01 and 9.50E-01.

And the “normalized TR-FRET signal (Fig 2j)” value (Log[inhibitor] (M) -8.615)?
The value was 7.72E-01 and 8.28E-01 and 8.16E-01.

And the “normalized TR-FRET signal (Fig 2j)” value (Log[inhibitor] (M) -8.916)?
Its value is 9.01E-01 and 9.63E-01 and 9.82E-01.

What about the “TR-FRET dose-response, normalized signal (SI Fig 11)” value (Log[inhibitor] (M) -9.000) of the same molecule?
Its value is 9.79E-01 and 9.82E-01 and 1.02E+00.

And the “normalized TR-FRET signal (Fig 2j)” value (Log[inhibitor] (M) -9.217)?
Its value is 9.20E-01 and 1.06E+00.

What about the “TR-FRET dose-response, normalized signal (SI Fig 11)” value (Log[inhibitor] (M) -9.301) of the same molecule?
The value was 1.04E+00 and 1.00E+00 and 9.65E-01.

And the “normalized TR-FRET signal (dose-response replicates)” value (Log[inhibitor] (M) -4.99976)?
Its value is 2.27E-01 and 3.58E-01 and 2.56E-01.

And the “normalized TR-FRET signal (dose-response replicates)” value (Log[inhibitor] (M) -5.3009)?
The value was 5.51E-01 and 1.03E-01 and 3.27E-01.

And the “normalized TR-FRET signal (dose-response replicates)” value (Log[inhibitor] (M) -5.60199)?
The value was 6.05E-01 and 4.05E-01 and 4.39E-01.

And the “normalized TR-FRET signal (dose-response replicates)” value (Log[inhibitor] (M) -5.90248)?
The value was 4.42E-01 and 6.91E-01 and 6.09E-01.

And the “normalized TR-FRET signal (dose-response replicates)” value (Log[inhibitor] (M) -6.20323)?
Its value is 4.30E-01 and 8.03E-01 and 7.35E-01.

And the “normalized TR-FRET signal (dose-response replicates)” value (Log[inhibitor] (M) -6.51347)?
The value was 8.28E-01 and 6.81E-01 and 6.14E-01.

What about the “normalized TR-FRET signal (dose-response replicates)” value (Log[inhibitor] (M) -6.79595) of the same molecule?
The value was 1.04E+00 and 6.14E-01 and 1.23E+00.

What about the “normalized TR-FRET signal (dose-response replicates)” value (Log[inhibitor] (M) -7.10794) of the same molecule?
The value was 8.29E-01 and 9.88E-01 and 1.04E+00.

And the “normalized TR-FRET signal (dose-response replicates)” value (Log[inhibitor] (M) -7.40526)?
The value was 1.19E+00 and 8.56E-01 and 7.59E-01.

And the “normalized TR-FRET signal (dose-response replicates)” value (Log[inhibitor] (M) -7.7137)?
Its value is 9.63E-01 and 9.49E-01 and 1.37E+00.

What about the “normalized TR-FRET signal (dose-response replicates)” value (Log[inhibitor] (M) -8) of the same molecule?
Its value is 8.45E-01 and 9.90E-01 and 8.83E-01.

What about the “normalized TR-FRET signal (dose-response replicates)” value (Log[inhibitor] (M) -8.331) of the same molecule?
The value was 9.93E-01 and 9.01E-01 and 8.86E-01.

What about the “normalized TR-FRET signal (dose-response replicates)” value (Log[inhibitor] (M) -8.57403) of the same molecule?
The value was 9.84E-01 and 9.89E-01 and 1.13E+00.

What about the “normalized TR-FRET signal (dose-response replicates)” value (Log[inhibitor] (M) -8.87506) of the same molecule?
Its value is 9.25E-01 and 9.80E-01 and 7.66E-01.

And the “normalized TR-FRET signal (dose-response replicates)” value (Log[inhibitor] (M) -9.17609)?
Its value is 7.05E-01 and 1.05E+00 and 1.13E+00.

From article PMC9403976, “Elucidating the path to Plasmodium prolyl-tRNA synthetase inhibitors that overcome halofuginone resistance” (Nature Communications, 2022)
